{"source": "paper PMC3294087", "about": "(Journal of Immunology (Baltimore, Md. : 1950), 2012)", "molecules": {"B1": {"name": "SP-D: Recombinant human pulmonary surfactant protein D, dodecameric fraction, produced in CHO-K1 cells (protein, UniProt P35247 21-375, looked up)", "Pulmonary …": "AEMKTYSHRTMPSACTLVMCSSVESGLPGRDGRDGREGPRGEKGDPGLPGAAGQAGMPGQAGPVGPKGDNGSVGEPGPKGDTGPSGPPGPPGVPGPAGREGPLGKQGNIGPQGKPGPKGEAGPKGEVGAPGMQGSAGARGLAGPKGERGVPGERGVPGNTGAAGSAGAMGPQGSPGARGPPGLKGDKGIPGDKGAKGESGLPDVASLRQQVEALQGQVQHLQAAFSQYKKVELFPNGQSVGEKIFKTAGFVKPFTEAQLLCTQAGGQLASPRSAAENAALQQLVVAKNEAAFLSMTDSKTEGKFTYPTGESLVYSNWAPGEPNDDGGSEDCVEIFTNGKWNDRACGEKRLVVCEF", "modifications": "dodecameric fraction"}}, "key": {"[1]": {"system": "Staphylococcus aureus (Wood 46 strain; ATCC# 10832)", "assay_type": "cell-based", "conditions": "30 min at 37°C in PBS, mean of three experiments"}, "[2]": {"system": "Candida albicans (Berkhout anamorph, ATCC # MYA-3573)", "assay_type": "cell-based", "conditions": "mean of three experiments"}, "[3]": {"system": "Phil82 strain of IAV (A/Phillipines/82(H3N2))", "test": "Fluorescent focus assay on A549 cells", "assay_type": "cell-based, influenza A virus", "conditions": "mean±SEM of 4 experiments"}}, "note": "Like-named read-outs stand apart in the source and are kept apart here."}
{"molecule": "HNP1: human neutrophil α-defensin", "values": [{"measurement": "S. aureus % of Control Colonies", "setting": "[1]; 1.25 μg/ml", "result": "202±5", "unit": "%"}, {"measurement": "S. aureus % of Control Colonies", "setting": "[1]; 2.5 μg/ml", "result": "151±4", "unit": "%"}, {"measurement": "S. aureus % of Control Colonies", "setting": "[1]; 20 μg/ml", "result": "71±1", "unit": "%"}, {"measurement": "C. albicans % of Control Colonies", "setting": "[2]; 1.25 μg/ml", "result": "81±5", "unit": "%"}, {"measurement": "C. albicans % of Control Colonies", "setting": "[2]; 2.5 μg/ml", "result": "61±4", "unit": "%"}, {"measurement": "C. albicans % of Control Colonies", "setting": "[2]; 20 μg/ml", "result": "61±2", "unit": "%"}]}
{"molecule": "B1", "values": [{"measurement": "Neutralizing activity (infectious foci, control = 100%)", "setting": "[3]; SP-D 5 ng/ml alone", "result": "74±10", "unit": "%"}, {"measurement": "Neutralizing activity (infectious foci, control = 100%)", "setting": "[3]; SP-D 10 ng/ml alone", "result": "50±6", "unit": "%"}]}
